The IC50 is the midpoint of a concentration-inhibition curve. A word on the inhibition: it is the change of the read-out against control, counted positive when it falls.

Molecules are shown by their SMILES.

In experiment [1] the target is Recombinant purified human BTK (Homo sapiens (Human), UniProt Q06187). Briefly: BTK enzyme inhibitory activity, ADP Glo kinase assay (Promega V9071). Format: biochemical. The settings on record: for IC50: ATP 10 uM, 1 hour 30° C.; for inhibition at 0.1 µM: 100 nM compound. Here is the method:
(§1) JAK3 and BTK kinase inhibitory activities were measured for the compounds prepared in the above Examples through in vitro analysis on the ADP Glow (Glo) platform.
(§2) Specifically, the inhibitory activities of JAK3 and BTK kinase were measured using a JAK3 kinase assay kit (Promega, V9441) and a BTK kinase assay kit (Promega, V9071) which were purchased from Promega. Recombinant purified human JAK3 and BTK were diluted with 1×kinase reaction buffer (JAK3: 40 mM Tris-Cl, pH 7.5, 20 mM MgCl2, 0.1 mg/mL BSA and 50 uM DTT/BTK: 40 mM Tris-Cl, pH 7.5, 20 mM MgCl2, 0.1 mg/mL BSA, 2 mM MnCl2 and 50 uM DTT) and added to a 96 well plate (JAK3: final concentration of 4 ng per reaction/BTK: final concentration of 8 ng per reaction). The compounds were treated so as to be finally a 1% DMSO aqueous solution, and a substrate cocktail containing ATP (JAK3: final concentration of 5 uM/BTK: final concentration of 10 uM) and 0.2 μg/μL of Poly(Glu4, Tyr1) peptide (JAK3 and BTK final concentration) in the total […] reactants was added to a 96-well plate to initiate enzymatic reaction. After incubation (30° C.) for 1 hour, equivalent volume ([…] per reaction) of ADP Glo was added and incubated (30° C.) for 40 minutes at room temperature. Then, a kinase detection reagent ([…] per reaction) was added and incubated (30° C.) for 30 minutes at room temperature. The kinase activity was measured by chemiluminescence according to the instructions of ADP Glo kinase assay kit, and the inhibitory activity of the compounds according to the present invention was calculated. For the analysis of the results of each compound, Microsoft Excel was used, and IC50 values were calculated by SigmaPlot software.
(ADP-Glo first removes unused ATP, then detects ADP through luciferase.)

Experiment [2] has as its target Recombinant purified human JAK3 (Homo sapiens (Human), UniProt P52333). Briefly: JAK3 enzyme inhibitory activity, ADP Glo kinase assay (Promega V9441). Conditions: ATP 5 uM, 1 hour 30° C. Format: biochemical. The method, then: as §1, §2

Sequence of Recombinant purified human JAK3 (P52333 whole entry): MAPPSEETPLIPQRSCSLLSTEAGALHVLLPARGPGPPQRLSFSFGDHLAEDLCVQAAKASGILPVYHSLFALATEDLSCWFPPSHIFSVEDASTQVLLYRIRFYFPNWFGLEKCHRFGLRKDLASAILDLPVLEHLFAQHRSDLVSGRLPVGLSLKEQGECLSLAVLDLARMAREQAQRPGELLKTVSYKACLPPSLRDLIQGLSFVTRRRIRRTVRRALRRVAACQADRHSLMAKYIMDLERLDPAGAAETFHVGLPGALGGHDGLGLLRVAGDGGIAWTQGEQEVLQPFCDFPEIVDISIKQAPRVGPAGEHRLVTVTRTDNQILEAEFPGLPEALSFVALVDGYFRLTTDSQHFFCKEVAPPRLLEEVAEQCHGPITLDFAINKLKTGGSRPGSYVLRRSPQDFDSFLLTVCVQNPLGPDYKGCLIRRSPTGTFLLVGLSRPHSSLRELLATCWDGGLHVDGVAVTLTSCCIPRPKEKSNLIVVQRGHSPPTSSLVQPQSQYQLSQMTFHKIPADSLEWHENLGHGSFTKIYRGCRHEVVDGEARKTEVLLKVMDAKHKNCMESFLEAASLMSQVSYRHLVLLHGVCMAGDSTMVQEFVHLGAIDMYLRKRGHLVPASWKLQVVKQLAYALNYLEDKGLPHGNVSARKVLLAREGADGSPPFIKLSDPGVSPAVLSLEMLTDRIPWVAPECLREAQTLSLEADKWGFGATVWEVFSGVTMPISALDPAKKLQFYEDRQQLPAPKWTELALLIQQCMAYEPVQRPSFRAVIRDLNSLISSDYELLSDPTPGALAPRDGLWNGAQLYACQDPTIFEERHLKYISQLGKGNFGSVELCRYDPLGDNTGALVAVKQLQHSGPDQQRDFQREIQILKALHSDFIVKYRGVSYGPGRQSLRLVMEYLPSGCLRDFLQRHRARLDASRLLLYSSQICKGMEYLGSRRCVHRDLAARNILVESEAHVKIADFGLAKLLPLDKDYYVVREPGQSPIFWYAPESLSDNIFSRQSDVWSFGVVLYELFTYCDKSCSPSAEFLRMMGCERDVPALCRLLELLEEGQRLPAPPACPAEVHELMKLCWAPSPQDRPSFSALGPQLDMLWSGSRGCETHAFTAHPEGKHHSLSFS
Sequence of Recombinant purified human BTK (Q06187 whole entry): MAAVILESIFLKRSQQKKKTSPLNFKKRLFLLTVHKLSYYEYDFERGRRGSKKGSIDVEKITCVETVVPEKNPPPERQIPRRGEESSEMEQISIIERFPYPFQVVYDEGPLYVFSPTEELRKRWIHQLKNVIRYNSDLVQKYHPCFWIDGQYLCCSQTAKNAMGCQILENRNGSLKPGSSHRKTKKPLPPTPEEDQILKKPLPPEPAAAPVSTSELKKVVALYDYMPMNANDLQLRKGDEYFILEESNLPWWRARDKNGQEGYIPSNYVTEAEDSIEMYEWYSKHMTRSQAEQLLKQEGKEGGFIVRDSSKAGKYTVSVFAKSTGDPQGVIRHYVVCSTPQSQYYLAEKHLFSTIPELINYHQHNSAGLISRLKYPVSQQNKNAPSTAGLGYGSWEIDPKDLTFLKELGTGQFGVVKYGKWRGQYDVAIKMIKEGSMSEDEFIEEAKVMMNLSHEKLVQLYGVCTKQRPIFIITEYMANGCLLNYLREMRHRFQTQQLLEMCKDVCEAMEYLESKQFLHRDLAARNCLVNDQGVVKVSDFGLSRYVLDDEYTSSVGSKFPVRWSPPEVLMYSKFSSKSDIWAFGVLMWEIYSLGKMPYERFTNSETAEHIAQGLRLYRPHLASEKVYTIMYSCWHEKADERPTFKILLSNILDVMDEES

For the molecule `C=CC(=O)N1CC[C@@H](C)[C@@H](Nc2nc(Nc3cnn(CC)c3)nc3[nH]ccc23)C1` [Example 107, 1-((3R,4R)-3-((2-((1-ethyl-1H-pyrazol-4-yl)amino)-7H-pyrrolo[2,3-d]pyrimidin-4-yl)amino)-4-methylpiperidin-1-yl)prop-2-en-1-one], the IC50 in experiment [1] is 7.8 nM; in experiment [2], 3.7 nM.
On the same counts, the results for `C=CC(=O)N1CCC[C@@H](Nc2nc(Nc3cnoc3)nc3[nH]nc(SC)c23)C1` [Example 130, (R)-1-(3-((6-(isoxazol-4-ylamino)-3-(methylthio)-1H-pyrazolo[3,4-d]pyrimidin-4-yl)amino)piperidin-1-yl)prop-2-en-1-one] are 1.1 nM and 9 nM.
For the molecule `C=CC(=O)N1CCC[C@@H](Nc2nc(Nc3cnn(CC)c3)nc3[nH]nc(Cl)c23)C1` [Example 46, (R)-1-(3-(3-chloro-6-(1-ethyl-1H-pyrazol-4-ylamino)-1H-pyrazolo[3,4-d]pyrimidin-4-ylamino)piperidin-1-yl)prop-2-en-1-one], the IC50 in experiment [1] was found to be 2 nM; in experiment [2], 0.6 nM.
As for `C=CC(=O)N1CC[C@@H](C)[C@@H](N(C)c2nc(Nc3ccc(N4CCN(C)CC4)cc3)nc3[nH]ccc23)C1` [Example 27, 1-((3R,4R)-4-methyl-3-(methyl(2-(4-(4-methylpiperazin-1-yl)phenylamino)-7H-pyrrolo[2,3-d]pyrimidin-4-yl)amino)piperidin-1-yl)prop-2-en-1-one], in experiment [1], the inhibition at 0.1 µM is 48%.
Still for that read-out and setting: to `C[C@@H]1CCN(C(=O)CC#N)C[C@@H]1N(C)c1nc(Nc2ccc(N3CCN(C)CC3)cc2)nc2[nH]ccc12` [Example 28, 3-((3R,4R)-4-methyl-3-(methyl(2-(4-(4-methylpiperazin-1-yl)phenylamino)-7H-pyrrolo[2,3-d]pyrimidin-4-yl)amino)piperidin-1-yl)-3-oxopropanenitrile] belongs 3.3%; to `C=CC(=O)NC1CCCC(Nc2nc(Nc3ccc(N4CCN(C)CC4)cc3)nc3[nH]ccc23)C1` (stereo not shown) [Example 29, N-(3-(2-(4-(4-methylpiperazin-1-yl)phenylamino)-7H-pyrrolo[2,3-d]pyrimidin-4-ylamino)cyclohexyl)acrylamide], 47.1%.
Take `CC#CC(=O)N1CCC[C@@H](Nc2nc(Nc3ccc(N4CCN(C)CC4)cc3)nc3[nH]cc(Cl)c23)C1` [Example 143, (R)-1-(3-((5-chloro-2-((4-(4-methylpiperazin-1-yl)phenyl)amino)-7H-pyrrolo[2,3-d]pyrimidin-4-yl)amino)piperidin-1-yl)but-2-yn-1-one]: the IC50 is 165 nM in experiment [1] and 19.3 nM in experiment [2].
`C=CC(=O)N1CCC[C@@H](Sc2nc(Nc3cnn(CC)c3)nc3[nH]cc(Cl)c23)C1` [Example 109, (R)-1-(3-((5-chloro-2-((1-ethyl-1H-pyrazol-4-yl)amino)-7H-pyrrolo[2,3-d]pyrimidin-4-yl)thio)piperidin-1-yl)prop-2-en-1-one]: the half-maximal inhibitory concentration (IC50) turned out to be 2 nM in experiment [1] and 0.3 nM in experiment [2].

The record behind these values is patent US10961247B2, “Pyrazolopyrimidine derivatives as kinase inhibitor” (Daewoong Pharmaceutical Co., Ltd., priority 2016, dated 2021).
